Measurements taken from patent US8309568B2, “Transdermally deliverable opioid prodrugs, abuse-resistant compositions and methods of using opioid prodrugs” (Alltranz Inc., priority 2006, dated 2012).
Where two headings read alike, the source gives them in different places.

Legend:
[1] = not given; remark: listed apart in the source
[2] = Table 8, gel formulation, analyte buprenorphine from prodrug
[3] = Table 8, gel formulation, analyte intact prodrug
[4] = Table 8, gel formulation, analyte total buprenorphine (buprenorphine and/or prodrug)
[5] = Table 9, propylene glycol, analyte buprenorphine from prodrug
[6] = Table 9, propylene glycol, analyte intact prodrug
[7] = Table 9, propylene glycol, analyte total buprenorphine (buprenorphine and/or prodrug)
[8] = Table 8, gel formulation, total buprenorphine flux relative to buprenorphine
[9] = Table 6, propylene glycol, 25% aq. ethanol receiver, analyte buprenorphine from prodrug
[10] = Table 6, propylene glycol, 25% aq. ethanol receiver, analyte intact prodrug
[11] = Table 6, propylene glycol, 25% aq. ethanol receiver, analyte total buprenorphine (buprenorphine and/or prodrug)
[12] = Table 11, propylene glycol, analyte intact prodrug
[13] = Table 11, propylene glycol, analyte total buprenorphine (buprenorphine and/or prodrug)
[14] = Table 11, propylene glycol, analyte buprenorphine from prodrug
[15] = Table 11, propylene glycol, total buprenorphine flux relative to buprenorphine
[16] = Table 10, gel formulation, analyte intact prodrug
[17] = Table 10, gel formulation, analyte total buprenorphine (buprenorphine and/or prodrug)
[18] = Table 12, propylene glycol/ethanol [96:4], analyte buprenorphine from prodrug
[19] = Table 12, propylene glycol/ethanol [96:4], analyte intact prodrug
[20] = Table 12, propylene glycol/ethanol [96:4], analyte total buprenorphine (buprenorphine and/or prodrug)
[21] = Table 13, gel formulation, analyte buprenorphine from prodrug
[22] = Table 13, gel formulation, analyte total buprenorphine (buprenorphine and/or prodrug)

In the case of COCCOCCOCCOC(=O)Oc1ccc2c3c1OC1C4(OC)CC[C@]5(CC4C(C)(O)C(C)(C)C)[C@@H](C2)N(CC2CC2)CC[C@]315 (stereo partly drawn) [ALL00106, Buprenorphine 3,6,9-trioxadecyl carbonate], the “24 h skin conc” value (Table 3, donor propylene glycol, Hanks' buffer receiver, analyte buprenorphine (Bup)) was 0.2 ± 0.1 (Bup) μmol/g, the “24 h skin conc” value (Table 3, donor propylene glycol, Hanks' buffer receiver, analyte intact prodrug (PD)) was 2.1 ± 1.5 (PD) μmol/g and the “24 h skin conc” value [2] was 0.3 ± 0.1 µmol/g. The “24 h skin conc” value [3] was 11.9 ± 3.6 µmol/g, the “24 h skin conc” value [4] was 12.2 ± 3.6 µmol/g and the “24 h skin conc” value [5] was 1.6 ± 0.4 µmol/g. The “24 h skin conc” value [6] was 10.4 ± 4.0 µmol/g, the “24 h skin conc” value [7] was 11.9 ± 4.4 µmol/g and the “form in which the prodrug permeated through the skin” value ([1]; Hanks' buffer receiver fluid) was “permeated through the human skin as buprenorphine”. The “24 h cumulative amt” value ([1]; Table 3, donor propylene glycol, Hanks' buffer receiver, buprenorphine permeated) was 11.4 ± 0.8 nmol, the Flux ([1]; Table 3, donor propylene glycol, Hanks' buffer receiver, total buprenorphine flux) was 0.54±0.07 nmol/cm^2/h and the Flux enhancement ([1]; Table 3, donor propylene glycol, flux relative to buprenorphine) was 1.20. For the same compound, the “24 h cumulative amt” value [1, 2] was 1.7 ± 0.3 nmol, the Flux [1, 2] was 0.2 ± 0.1 nmol/cm^2/h and the Lag time [1, 2] was 4.7 ± 1.5 h. For the same compound, the “24 h cumulative amt” value [1, 3] was 3.8 ± 0.3 nmol, the Flux [1, 3] was 0.3 ± 0.0 nmol/cm^2/h and the Lag time [1, 3] was 8.2 ± 0.8 h. For the same compound, the “24 h cumulative amt” value [1, 4] was 5.5 ± 0.5 nmol, the Flux [1, 4] was 0.4 ± 0.1 nmol/cm^2/h and the Lag time [1, 4] was 6.5 ± 1.1 h. For the same compound, the Flux enhancement [1, 8] was 0.4, the “24 h cumulative amt” value [1, 5] was 30.1 ± 13.2 nmol and the Flux [1, 5] was 2.3 ± 0.8 nmol/cm^2/h. For the same compound, the Lag time [1, 5] was 10.2 ± 1.4 h, the “24 h cumulative amt” value [1, 6] was 18.8 ± 4.6 nmol and the Flux [1, 6] was 1.5 ± 0.3 nmol/cm^2/h. For the same compound, the Lag time [1, 6] was 11.1 ± 1.2 h, the “24 h cumulative amt” value [1, 7] was 48.9 ± 17.6 nmol and the Flux [1, 7] was 3.8 ± 1.1 nmol/cm^2/h. For the same compound, the Lag time [1, 7] was 10.6 ± 1.3 h and the Flux enhancement ([1]; Table 9, propylene glycol, total buprenorphine flux relative to buprenorphine) was 3.2.

For COCCOCCOCC(=O)Oc1ccc2c3c1O[C@H]1[C@@]4(OC)CC[C@@]5(C[C@@H]4[C@@](C)(O)C(C)(C)C)[C@@H](C2)N(CC2CC2)CC[C@]315 [ALL00108, Buprenorphine 2-[2-(2-methoxyethoxy)ethoxy]acetyl ester], the “24 h skin conc” value [9] was 0.4 ± 0.1 µmol/g, the “24 h skin conc” value [10] was 1.0 ± 0.3 µmol/g and the “24 h skin conc” value [11] was 1.4 ± 0.4 µmol/g. For the same compound, the “24 h skin conc” value [2] was 0.2 ± 0.2 µmol/g, the “24 h skin conc” value [3] was 1.9 ± 1.6 µmol/g and the “24 h skin conc” value [4] was 2.2 ± 1.8 µmol/g. The “24 h skin conc” value [12] was 2.4 ± 0.7 µmol/g, the “24 h skin conc” value [13] was 2.4 ± 0.7 µmol/g and the “24 h cumulative amt” value [1, 9] was 9.7 ± 0.4 nmol. The Flux [1, 9] was 0.90 ± 0.07 nmol/cm^2/h, the Lag time [1, 9] was 12.5 ± 1.3 h and the “24 h cumulative amt” value [1, 10] was 7.6 ± 2.0 nmol. The “24 h cumulative amt” value [1, 11] was 17.3 ± 1.6 nmol, the Flux [1, 11] was 1.01±0.07 nmol/cm^2/h and the Lag time [1, 11] was 6.0 ± 0.5 h. The Flux enhancement ([1]; Table 6, propylene glycol, 25% aq. ethanol receiver, total buprenorphine flux relative to buprenorphine) was 2.35, the “24 h cumulative amt” value [1, 2] was 21.0 ± 6.7 nmol and the Flux [1, 2] was 1.2 ± 0.6 nmol/cm^2/h. For the same compound, the Lag time [1, 2] was 7.8 ± 0.8 h, the “24 h cumulative amt” value [1, 4] was 21.0 ± 6.7 nmol and the Flux [1, 4] was 1.2±0.6 nmol/cm^2/h. For the same compound, the Lag time [1, 4] was 7.8 ± 0.8 h, the Flux enhancement [1, 8] was 1.3 and the “24 h cumulative amt” value [1, 14] was 5.8 ± 0.7 nmol. The Flux [1, 14] was 0.5 ± 0.0 nmol/cm^2/h, the Lag time [1, 14] was 10.9 ± 2.4 h and the “24 h cumulative amt” value [1, 13] was 5.8 ± 0.7 nmol. It also gave a Flux [1, 13] of 0.5±0.0 nmol/cm^2/h, a Lag time [1, 13] of 10.9 ± 2.4 h and a Flux enhancement [1, 15] of 1.7. The “form in which the prodrug permeated through the skin” value ([1]; aqueous ethanol receiver fluid) was “permeated through the skin as buprenorphine and intact prodrug” and the “cumulative amount (nmol) higher than the buprenorphine base” value ([1]; aqueous ethanol receiver, propylene glycol, relative to buprenorphine base) was 4 ×.

In the case of COCCOCCOCCOCCOC(=O)Oc1ccc2c3c1OC1C4(OC)CC[C@]5(CC4C(C)(O)C(C)(C)C)[C@@H](C2)N(CC2CC2)CC[C@]315 (stereo partly drawn) [ALL00115, Buprenorphine 3,6,9,12-tetraoxatridecyl carbonate], the “24 h skin conc” value (Table 10, gel formulation, analyte buprenorphine from prodrug) was 0.1 ± 0.0 µmol/g, the “24 h skin conc” value [16] was 3.4 ± 0.6 µmol/g and the “24 h skin conc” value [17] was 1.4 ± 0.4 µmol/g. For the same compound, the “24 h skin conc” value [12] was 0.8 ± 0.2 µmol/g, the “24 h skin conc” value [13] was 0.8 ± 0.2 µmol/g and the “24 h cumulative amt” value [1, 16] was 4.5 ± 1.3 nmol. For the same compound, the Flux [1, 16] was 0.2 ± 0.1 nmol/cm^2/h, the Lag time [1, 16] was 7.6 ± 0.5 h and the “24 h cumulative amt” value [1, 17] was 4.5 ± 1.3 nmol. It also gave a Flux [1, 17] of 0.2±0.1 nmol/cm^2/h, a Lag time [1, 17] of 7.6 ± 0.5 h and a Flux enhancement ([1]; Table 10, gel formulation, total buprenorphine flux relative to buprenorphine) of 1.2. The “24 h cumulative amt” value [1, 12] was 6.0 ± 1.3 nmol, the “24 h cumulative amt” value [1, 13] was 6.0 ± 1.3 nmol and the Flux [1, 13] was 0.7±0.2 nmol/cm^2/h. The Lag time [1, 13] was 9.4 ± 8.5 h, the Flux enhancement [1, 15] was 2.3 and the “form detected in the receiver fluid” value ([1]; both the gel formulation and propylene glycol) was “mostly detected as intact prodrug”.

In the case of COCCOCCOCCOCC(=O)Oc1ccc2c3c1OC1C4(OC)CC[C@]5(CC4C(C)(O)C(C)(C)C)[C@@H](C2)N(CC2CC2)CC[C@]315 (stereo partly drawn) [ALL00116, Buprenorphine 3,6,9,12-tetraoxatridecanoyl ester], the “24 h skin conc” value [18] was 2.4 ± 0.9 µmol/g, the “24 h skin conc” value [19] was 20.4 ± 5.8 µmol/g and the “24 h skin conc” value [20] was 22.7 ± 6.8 µmol/g. The “24 h skin conc” value [21] was 0.2 ± 0.0 µmol/g, the “24 h skin conc” value (Table 13, gel formulation, analyte intact prodrug) was 3.3 ± 0.8 µmol/g and the “24 h skin conc” value [22] was 3.5 ± 0.9 µmol/g. For the same compound, the “24 h cumulative amt” value [1, 18] was 8.7 ± 1.2 nmol, the Flux [1, 18] was 0.8 ± 0.2 nmol/cm^2/h and the Lag time [1, 18] was 13.2 ± 0.8 h. The “24 h cumulative amt” value [1, 19] was 21.7 ± 6.7 nmol, the Flux [1, 19] was 1.9 ± 0.6 nmol/cm^2/h and the Lag time [1, 19] was 11.8 ± 1.4 h. For the same compound, the “24 h cumulative amt” value [1, 20] was 30.4 ± 7.0 nmol, the Flux [1, 20] was 2.7±0.7 nmol/cm^2/h and the Lag time [1, 20] was 12.3 ± 1.2 h. For the same compound, the Flux enhancement ([1]; Table 12, propylene glycol/ethanol [96:4], total buprenorphine flux relative to buprenorphine) was 9.2, the “24 h cumulative amt” value [1, 21] was 5.5 ± 0.6 nmol and the Flux [1, 21] was 0.4 ± 0.1 nmol/cm^2/h. For the same compound, the Lag time [1, 21] was 7.2 ± 0.6 h, the “24 h cumulative amt” value [1, 22] was 5.5 ± 0.6 nmol and the Flux [1, 22] was 0.4±0.1 nmol/cm^2/h. The Lag time [1, 22] was 7.2 ± 0.6 h and the Flux enhancement ([1]; Table 13, gel formulation, total buprenorphine flux relative to buprenorphine) was 1.2.
